# Like-named read-outs stand apart in the source and are kept apart here.
# Assays:
# [1] = test system: HCV genotype 1a (H77 strain) replicon in HUH-7 cells; assay: HCV replicon luciferase reporter assay, genotype 1a; assay type: cell-based; conditions: Hepatitis C virus, Huh-7, 72 h, 3 days incubation
# Procedure, shortened: (§1)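 Replicon inhibition for both genotypes was measured as Renilla luciferase signal (EnduRen, 7.5 μM final, 2 h) after 3-day, 37° C exposure of replicon-bearing HUH-7 cells in 4% FCS DMEM, 0.5% DMSO. The 1b construct carries S1179I; the 1a H77 construct carries P1496L and S2204I. Twenty-point, 3-fold dilutions were fitted four-parametrically for EC50, and CC50 was taken from multiplexed Cell Titer-Blue.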
# [2] = test system: HCV genotype 1b (Con1) replicon in HUH-7 cells; assay: HCV replicon luciferase reporter assay, genotype 1b; assay type: cell-based; conditions: Hepatitis C virus, Huh-7, 72 h, 3 days incubation
# Procedure, shortened: as §1
# [3] = HCV genotype 1a replicon luciferase assay, range class, read-out: LE_1a (EC50, range)
# [4] = HCV genotype 1b replicon luciferase assay, range class, read-out: LE_1b (EC50, range)
# [5] = HCV genotype 1a replicon luciferase, read-out: LE_1a (EC50, range)
# [6] = HCV genotype 1b replicon luciferase, read-out: LE_1b (EC50, range)
SMILES,"EC50 [1, 3] [nM]","EC50 [2, 4] [nM]","EC50 [1, 5] [nM]","EC50 [2, 6] [nM]","EC50 ([1]; HCV genotype 1a replicon luciferase, read-out: LE_1a (EC50)) [nM]","EC50 ([2]; HCV genotype 1b replicon luciferase, read-out: LE_1b (EC50)) [nM]"
"COc1ccc2c(O[C@@H]3C[C@H]4C(=O)N[C@]5(C(=O)NS(=O)(=O)C6(CF)CC6)C[C@H]5/C=C\CC[C@@H](C)C[C@@H](C)[C@H](NC(=O)OC(C)(C)C(C)(F)F)C(=O)N4C3)ncc(C(F)(F)F)c2c1 [Compound 1167, 3,3-difluoro-2-methylbutan-2-yl((2R,6S,7R,9R,13aS,14aR,16aS,Z)-14a-(((1-(fluoromethyl)cyclopropyl)sulfonyl)carbamoyl)-2-((6-methoxy-4-(trifluoromethyl)isoquinolin-1-yl)oxy)-7,9-dimethyl-5,16-dioxo-1,2,3,5,6,7,8,9,10,11,13a,14,14a,15,16,16a-hexadecahydrocyclopropa[e]pyrrolo[1,2-a][1,4]diazacyclopentadecin-6-yl)carbamate]",< 5.46,< 5.46,,,,
"CCOc1cc2cc(OC)ccc2c(O[C@@H]2C[C@H]3C(=O)N[C@]4(C(=O)NS(=O)(=O)C5(C)CC5)C[C@H]4/C=C\CC[C@@H](C)C[C@@H](C)[C@H](NC(=O)OC(C)(C)C(C)(F)F)C(=O)N3C2)n1 [Compound 3200, 3,3-difluoro-2-methylbutan-2-yl((2R,6S,7R,9R,13aS,14aR,16aS,Z)-2-((3-ethoxy-6-methoxyisoquinolin-1-yl)oxy)-7,9-dimethyl-14a-(((1-methylcyclopropyl)sulfonyl)carbamoyl)-5,16-dioxo-1,2,3,5,6,7,8,9,10,11,13a,14,14a,15,16,16a-hexadecahydrocyclopropa[e]pyrrolo[1,2-a][1,4]diazacyclopentadecin-6-yl)carbamate]",,,0.51 to 1,0.51 to 1,,
COc1ccc2c(O[C@@H]3C[C@H]4C(=O)N[C@]5(C(=O)NS(=O)(=O)C6(F)CC6)C[C@H]5/C=C\CC[C@@H](C)C[C@@H](C)[C@H](NC(=O)O[C@H](C)C(F)(F)F)C(=O)N4C3)nccc2c1 [Compound 4020],,,< 5.46,< 5.46,,
[2H]C([2H])([2H])C(OC(=O)N[C@@H]1C(=O)N2C[C@H](Oc3nnc(OCC)c4ccccc34)C[C@H]2C(=O)N[C@]2(C(=O)NS(=O)(=O)C3CC3)C[C@H]2/C=C\CC[C@@H](C)C[C@H]1C)(C([2H])([2H])[2H])C(F)(F)F [Compound 5039],,,< 5.46,< 5.46,,
"CCn1nc(O[C@@H]2C[C@H]3C(=O)N[C@]4(C(=O)NS(=O)(=O)C5(C)CC5)C[C@H]4/C=C\CC[C@H](C)C[C@@H](C)[C@H](NC(=O)OC(C)(C)C(F)(F)F)C(=O)N3C2)c2ccccc2c1=O [Compound 5052, 1,1,1-trifluoro-2-methylpropan-2-yl((2R,6S,7R,9S,13aS,14aR,16aS,Z)-2-((3-ethyl-4-oxo-3,4-dihydrophthalazin-1-yl)oxy)-7,9-dimethyl-14a-(((1-methylcyclopropyl)sulfonyl)carbamoyl)-5,16-dioxo-1,2,3,5,6,7,8,9,10,11,13a,14,14a,15,16,16a-hexadecahydrocyclopropa[e]pyrrolo[1,2-a][1,4]diazacyclopentadecin-6-yl)carbamate]",,,> 87.4,4.82 to 103,330,76.2
"CCCOc1cnc(O[C@@H]2C[C@H]3C(=O)N[C@]4(C(=O)NS(=O)(=O)C5CC5)C[C@H]4/C=C\CC[C@@H](C)C[C@@H](C)[C@H](NC(=O)OCC4(C)CC4)C(=O)N3C2)c2ccccc12 [Compound 5097, (1-methylcyclopropyl)methyl ((2R,6S,7R,9R,13aS,14aR,16aS,Z)-14a-((cyclopropylsulfonyl)carbamoyl)-7,9-dimethyl-5,16-dioxo-2-((4-propoxyisoquinolin-1-yl)oxy)-1,2,3,5,6,7,8,9,10,11,13a,14,14a,15,16,16a-hexadecahydrocyclopropa[e]pyrrolo[1,2-a][1,4]diazacyclopentadecin-6-yl)carbamate]",,,< 5.46,< 5.46,,
"COc1cnc(O[C@@H]2C[C@H]3C(=O)N[C@]4(C(=O)NS(=O)(=O)C5CC5)C[C@H]4/C=C\CC[C@H](C)C[C@@H](C)[C@H](NC(=O)OC(C)(C)C(F)(F)F)C(=O)N3C2)c2cccc(Cl)c12 [Compound 28, 1,1,1-trifluoro-2-methylpropan-2-yl((2R,6S,7R,9S,13aS,14aR,16aS,Z)-2-((5-chloro-4-methoxyisoquinolin-1-yl)oxy)-14a-((cyclopropylsulfonyl)carbamoyl)-7,9-dimethyl-5,16-dioxo-1,2,3,5,6,7,8,9,10,11,13a,14,14a,15,16,16a-hexadecahydrocyclopropa[e]pyrrolo[1,2-a][1,4]diazacyclopentadecin-6-yl)carbamate]",< 5.46,< 5.46,,,,
"COc1ccc2c(O[C@@H]3C[C@H]4C(=O)N[C@]5(C(=O)NS(=O)(=O)C6(C)CC6)C[C@H]5/C=C\CC[C@@H](C)C[C@@H](C)[C@H](NC(=O)OC(C)(C)C(F)(F)F)C(=O)N4C3)nc(-c3ccc4c(c3)OCCO4)cc2c1 [Compound 5235, 1,1,1-trifluoro-2-methylpropan-2-yl((2R,6S,7R,9R,13aS,14aR,16aS,Z)-2-((3-(2,3-dihydrobenzo[b][1,4]dioxin-6-yl)-6-methoxyisoquinolin-1-yl)oxy)-7,9-dimethyl-14a-(((1-methylcyclopropyl)sulfonyl)carbamoyl)-5,16-dioxo-1,2,3,5,6,7,8,9,10,11,13a,14,14a,15,16,16a-hexadecahydrocyclopropa[e]pyrrolo[1,2-a][1,4]diazacyclopentadecin-6-yl)carbamate]",,,< 5.46,< 5.46,,
"COc1ccc2c(O[C@@H]3C[C@H]4C(=O)N[C@]5(C(=O)NS(=O)(=O)C6(C)CC6)C[C@H]5/C=C\CC[C@H](C)C[C@@H](C)[C@H](NC(=O)OC(C)(C)C(C)(F)F)C(=O)N4C3)nc(-c3ccc4c(c3)OCCO4)cc2c1 [Compound 5236, 3,3-difluoro-2-methylbutan-2-yl((2R,6S,7R,9S,13aS,14aR,16aS,Z)-2-((3-(2,3-dihydrobenzo[b][1,4]dioxin-6-yl)-6-methoxyisoquinolin-1-yl)oxy)-7,9-dimethyl-14a-(((1-methylcyclopropyl)sulfonyl)carbamoyl)-5,16-dioxo-1,2,3,5,6,7,8,9,10,11,13a,14,14a,15,16,16a-hexadecahydrocyclopropa[e]pyrrolo[1,2-a][1,4]diazacyclopentadecin-6-yl)carbamate]",,,< 5.46,< 5.46,,
"CCOc1ccc2c(O[C@@H]3C[C@H]4C(=O)N[C@]5(C(=O)NS(=O)(=O)C6CC6)C[C@H]5/C=C\CC[C@@H](C)C[C@@H](C)[C@H](NC(=O)OC(C)(C)C)C(=O)N4C3)nccc2c1 [Compound 5128, tert-butyl ((2R,6S,7R,9R,13aS,14aR,16aS,Z)-14a-((cyclopropylsulfonyl)carbamoyl)-2-((6-ethoxyisoquinolin-1-yl)oxy)-7,9-dimethyl-5,16-dioxo-1,2,3,5,6,7,8,9,10,11,13a,14,14a,15,16,16a-hexadecahydrocyclopropa[e]pyrrolo[1,2-a][1,4]diazacyclopentadecin-6-yl)carbamate]",,,< 5.46,< 5.46,,
CCOc1ccc2c(O[C@@H]3C[C@H]4C(=O)N[C@]5(C(=O)NS(=O)(=O)C6CC6)C[C@H]5/C=C\CC[C@@H](C)C[C@@H](CC)[C@H](NC(=O)OC(C)(C)C(C)(F)F)C(=O)N4C3)nccc2c1 [Compound 5359],,,1.01 to 5,1.01 to 5,,
"COc1ccc2c(O[C@@H]3C[C@H]4C(=O)N[C@]5(C(=O)NS(=O)(=O)C6(C)CC6)C[C@H]5/C=C\CC[C@H](C)C[C@@H](C)[C@H](NC(=O)O[C@@H]5C[C@@H]6C[C@@H]6C5)C(=O)N4C3)nc(-c3ccc(OC(C)C)c(F)c3)cc2c1 [Compound 3071, (1R,3r,5S)-bicyclo[3.1.0]hexan-3-yl((2R,6S,7R,9S,13aS,14aR,16aS,Z)-2-((3-(3-fluoro-4-isopropoxyphenyl)-6-methoxyisoquinolin-1-yl)oxy)-7,9-dimethyl-14a-(((1-methylcyclopropyl)sulfonyl)carbamoyl)-5,16-dioxo-1,2,3,5,6,7,8,9,10,11,13a,14,14a,15,16,16a-hexadecahydrocyclopropa[e]pyrrolo[1,2-a][1,4]diazacyclopentadecin-6-yl)carbamate]",4.82 to 103,< 5.46,,,,
"COc1ccc2nc(OC)c(O[C@@H]3C[C@H]4C(=O)N[C@]5(C(=O)NS(=O)(=O)C6(C)CC6)C[C@H]5/C=C\CC[C@@H](C)C[C@@H](C)[C@H](NC(=O)OC(C)(C)C)C(=O)N4C3)cc2c1 [Compound 4373, tert-butyl ((2R,6S,7R,9R,13aS,14aR,16aS,Z)-2-((2,6-dimethoxyquinolin-3-yl)oxy)-7,9-dimethyl-14a-(((1-methylcyclopropyl)sulfonyl)carbamoyl)-5,16-dioxo-1,2,3,5,6,7,8,9,10,11,13a,14,14a,15,16,16a-hexadecahydrocyclopropa[e]pyrrolo[1,2-a][1,4]diazacyclopentadecin-6-yl)carbamate]",,,0.1 to 0.5,0.1 to 0.5,,
"COc1ccc2c(O[C@@H]3C[C@H]4C(=O)N[C@]5(C(=O)NS(=O)(=O)C6(C)CC6)C[C@H]5/C=C\CC[C@@H](C)C[C@@H](C)[C@H](NC(=O)OC(C)(C)C(F)(F)F)C(=O)N4C3)nc(-c3ccc(OC(C)C)cc3)nc2c1 [Compound 3012, 1,1,1-trifluoro-2-methylpropan-2-yl((2R,6S,7R,9R,13aS,14aR,16aS,Z)-2-((2-(4-isopropoxyphenyl)-7-methoxyquinazolin-4-yl)oxy)-7,9-dimethyl-14a-(((1-methylcyclopropyl)sulfonyl)carbamoyl)-5,16-dioxo-1,2,3,5,6,7,8,9,10,11,13a,14,14a,15,16,16a-hexadecahydrocyclopropa[e]pyrrolo[1,2-a][1,4]diazacyclopentadecin-6-yl)carbamate]",< 5.46,< 5.46,,,,
